{
  "source": "the NIST ThermoML archive (doi:10.1016/j.tca.2013.03.031)",
  "details": "101.33 kPa, Liquid, Vibrating tube method",
  "note": "± gives the expanded uncertainty stated by the source.",
  "data": [
    {"molecule": "CCCCCC(C)=O", "note": "[2-heptanone]", "values": [
      {"measurement": "mass density", "setting": "288.15 K", "result": "819.786 ± 0.65", "unit": "kg/m3"},
      {"measurement": "mass density", "setting": "293.15 K", "result": "815.497 ± 0.64", "unit": "kg/m3"},
      {"measurement": "mass density", "setting": "298.15 K", "result": "811.198 ± 0.64", "unit": "kg/m3"},
      {"measurement": "mass density", "setting": "303.15 K", "result": "806.887 ± 0.63", "unit": "kg/m3"},
      {"measurement": "mass density", "setting": "308.15 K", "result": "802.562 ± 0.63", "unit": "kg/m3"},
      {"measurement": "mass density", "setting": "313.15 K", "result": "798.222 ± 0.63", "unit": "kg/m3"}
    ]},
    {"molecule": "ClCCCl", "note": "[1,2-dichloroethane]", "values": [
      {"measurement": "mass density", "setting": "288.15 K", "result": "1259.99 ± 0.45", "unit": "kg/m3"},
      {"measurement": "mass density", "setting": "293.15 K", "result": "1252.77 ± 0.44", "unit": "kg/m3"},
      {"measurement": "mass density", "setting": "298.15 K", "result": "1245.49 ± 0.44", "unit": "kg/m3"},
      {"measurement": "mass density", "setting": "303.15 K", "result": "1238.18 ± 0.43", "unit": "kg/m3"},
      {"measurement": "mass density", "setting": "308.15 K", "result": "1230.84 ± 0.42", "unit": "kg/m3"},
      {"measurement": "mass density", "setting": "313.15 K", "result": "1223.46 ± 0.42", "unit": "kg/m3"}
    ]},
    {"molecule": "O=C1CCCCC1", "note": "[cyclohexanone]", "values": [
      {"measurement": "mass density", "setting": "288.15 K", "result": "951.178 ± 0.23", "unit": "kg/m3"},
      {"measurement": "mass density", "setting": "293.15 K", "result": "946.713 ± 0.23", "unit": "kg/m3"},
      {"measurement": "mass density", "setting": "298.15 K", "result": "942.243 ± 0.23", "unit": "kg/m3"},
      {"measurement": "mass density", "setting": "303.15 K", "result": "937.767 ± 0.23", "unit": "kg/m3"},
      {"measurement": "mass density", "setting": "308.15 K", "result": "933.285 ± 0.23", "unit": "kg/m3"},
      {"measurement": "mass density", "setting": "313.15 K", "result": "928.795 ± 0.23", "unit": "kg/m3"}
    ]},
    {"molecule": "ClC(Cl)C(Cl)Cl", "note": "[1,1,2,2-tetrachloroethane]", "values": [
      {"measurement": "mass density", "setting": "288.15 K", "result": "1601.45 ± 2.3", "unit": "kg/m3"},
      {"measurement": "mass density", "setting": "293.15 K", "result": "1593.65 ± 2.3", "unit": "kg/m3"},
      {"measurement": "mass density", "setting": "298.15 K", "result": "1585.87 ± 2.3", "unit": "kg/m3"},
      {"measurement": "mass density", "setting": "303.15 K", "result": "1578.07 ± 2.3", "unit": "kg/m3"},
      {"measurement": "mass density", "setting": "308.15 K", "result": "1570.27 ± 2.2", "unit": "kg/m3"},
      {"measurement": "mass density", "setting": "313.15 K", "result": "1562.45 ± 2.2", "unit": "kg/m3"}
    ]},
    {"molecule": "CCC(C)=O", "note": "[butanone]", "values": [
      {"measurement": "mass density", "setting": "288.15 K", "result": "810.262 ± 0.24", "unit": "kg/m3"},
      {"measurement": "mass density", "setting": "293.15 K", "result": "805.058 ± 0.24", "unit": "kg/m3"},
      {"measurement": "mass density", "setting": "298.15 K", "result": "799.828 ± 0.24", "unit": "kg/m3"},
      {"measurement": "mass density", "setting": "303.15 K", "result": "794.565 ± 0.24", "unit": "kg/m3"},
      {"measurement": "mass density", "setting": "308.15 K", "result": "789.273 ± 0.24", "unit": "kg/m3"},
      {"measurement": "mass density", "setting": "313.15 K", "result": "783.946 ± 0.24", "unit": "kg/m3"}
    ]}
  ]
}
